Here are results for three compounds from ChEMBL document CHEMBL5038620, “Discovery of a First-in-Class Inhibitor of the Histone Methyltransferase SETD2 Suitable for Preclinical Studies” (ACS Med Chem Lett, 2021).

Series [1] can be described thus: Clearance in CD-1 mouse at 1 mg/kg, iv by LC-MS/MS analysis. It counts as ADME, organism-based. The following applies: in vivo.
A short description of series [2]: Volume of distribution in CD-1 mouse at 1 mg/kg, iv by LC-MS/MS analysis. The format is ADME, organism-based. The following applies: in vivo.
A short description of series [3]: Terminal half life in CD-1 mouse at 1 mg/kg, iv by LC-MS/MS analysis. It counts as ADME, organism-based. The following applies: in vivo, read-out: beta t1/2 (converted).
A short description of series [4]: Stability in mouse hepatocytes assessed as intrinsic clearance measured upto 60 minutes by LC/MS/MS analysis. The following applies: read-out: CLH. The format is ADME, cell-based, Hepatocyte.
A short description of series [5]: Stability in human hepatocytes assessed as intrinsic clearance measured upto 120 minutes by LC/MS/MS analysis. It counts as ADME, cell-based, Hepatocyte. The following applies: time >=60 min, read-out: CLH.
The nature of series [6]: Apparent permeability across apical to basal membrane in human Caco-2 cells measured after 2 hrs by LC-MS/MS analysis. The format is ADME, cell-based. (In general: Caco-2 monolayers are a common model of the intestinal barrier.)

With `CC(=O)N(C)C1CCN(c2cc(F)cc(NC(=O)c3cc4c(F)ccc(C)c4[nH]3)c2)C1` (centres undefined), the clearance – broadly, the rate of elimination divided by the concentration – in series [1] was determined as 24.2 mL/min/kg. Besides, the Vd (usually the apparent volume that relates the amount in the body to the concentration in plasma or blood) in series [2] was 1.04 L/kg. The half-life in series [3] is 42 min.
With `CC.Cc1ccc(F)c2cc(C(=O)N[C@@H]3CCC[C@H](N4CC[C@@H](N(C)S(C)(=O)=O)C4)C3)[nH]c12`, the CLint scaled was found to be 235 mL/min/kg in series [4] and 21.1 mL/min/kg in series [5].
For `Cc1ccc(F)c2cc(C(=O)N[C@@H]3CCC[C@H](N4CC[C@H](N(C)S(C)(=O)=O)C4)C3)[nH]c12`, the Papp A→B (commonly how fast a substance crosses the layer from the apical side) at 2 h in series [6] was 3.2 ×10⁻⁶ cm/s. Also, the clearance in series [1] turned out to be 24.2 mL/min/kg. The same compound came in with a Vd in series [2] of 1.04 L/kg. Moreover, the half-life in series [3] was 42 min.
